Reference: article PMC5008636, “Phosphatidylserine and Phosphatidylethanolamine Bind to Protein Z Cooperatively and with Equal Affinity” (PLoS ONE, 2016)
“Also recorded” adds a separate entry of the source. Read-outs that look alike come from different tables or passages of the source. Blank lines part the entries; values can stand above or below the compound they belong to.

Columns and labels:
[1] = target: T1, PZ (Homo sapiens, UniProt P22891); assay: Binding of soluble lipids to PZ by intrinsic tryptophan fluorescence; conditions: for effect of pre-incubation of PZ with C6PS on affinity of PZ towards the lipid: saturating amount of C6PS; for lower binding affinity to PZ compared to PS and PE: soluble lipids, 5 mM Ca2+; for Kd in 1 mM Ca2+ relative to Kd in 5 mM Ca2+: 1 mM vs 5 mM Ca2+; for binding to PZ with excess EDTA: 5 mM EDTA in the assay buffer
T1 construct: purchased Enzyme Research Laboratories (South Bend, IN, USA)
Method: (§1) PZ intrinsic tryptophan fluorescence as a function of increasing concentration of soluble phospholipid was measured as described in [12] using a FluoroLog spectrofluorometer (Horiba Jobin-Yvon Inc., Edison, NJ) with an excitation wavelength of 285nm (band-pass 4 nm); emission was recorded at 340 nm (band-pass 4 nm). Each experiment was performed below the critical micelle concentration (CMC) of the soluble lipid. The CMC was determined under experimental conditions following pyrene fluorescence as a function of increasing lipid concentration. Apparent dissociation constants for binding of PZ to soluble lipids were obtained by fitting the experimental data to a simple, single-site binding model, using the assumption that [C6PL]free ≈ [C6PL]total

[2] = Critical micelle concentration by pyrene fluorescence; format: physicochemical; conditions: under experimental conditions
Method: as §1
Since pyrene is hydrophobic, partitioning into the interior of a micelle is manifested as a sharp increase in the ratio of the intensity of the pyrene emissions at 373 and 383 nm.

[3] = target: T1, PZ; assay: Equilibrium dialysis of soluble C6PS/C6PE binding to PZ; conditions: for Stoichiometry (Average) of lipid binding to PZ / ΔP (difference in phosphate concentration): 250 μM lipid, 5 mM Ca2+; for Stoichiometry (Average) of lipid binding to PZ: PZ 15, 20, 30 μM, calculated from Eq (1); for binding to PZ in equilibrium dialysis without Ca2+: absence of Ca2+ and presence of EDTA in the buffer
Method: Experiments were performed using 2.0-ml Teflon dialysis cells (Harvard Apparatus, Holliston, MA) with the two cells separated by a 2000 Da molecular weight cut-off membrane. Both chambers contained equal amount of […], and one chamber contained the appropriate amount of PZ. Both chambers were allowed to equilibrate with each other at room temperature for 24 h while being rotated horizontally at 20 rpm. […] where, n is the stoichiometry of binding, [L] is the concentration of phospholipid added to the chamber, [P] is the protein concentration present in one half of the chamber, and Kd is the binding constant obtained from fluorescence experiments. Total protein concentration, [P], must be large enough to detect a measurable difference in phosphate concentration between the two chambers. In a recent analysis of soluble lipid binding to two non-equivalent sites on fIXa, it was shown that a narrow protein concentration range was sufficient to obtain stoichiometries for each site. […] For each protein concentration, three aliquots were withdrawn and phosphate concentrations were measured.

[4] = target: fXa; design: method as in PMID 21859710; conditions: soluble lipid; read-out: Kd for binding of fXa; cited from earlier work
[5] = target: human fXa (Homo sapiens, UniProt P00742); assay: FXa inhibition assay: AT-mediated inhibition of fXa amidolytic activity (S2765); format: biochemical; conditions: 40 nM PZ, 3 μM AT, no membrane
Method: Amidolytic activity of human fXa was measured in an assay mixtures containing 5 nM fXa, 3 μM AT, 50 μM phospholipid membrane (DOPS:DOPC, DOPE:DOPC, and only DOPC) and 40 nM PZ in buffer (50 mM Tris, 175 mM NaCl, 0.6% PEG, 5 mM CaCl2, pH 7.4 using the substrate S2765 according to the method described in [31]. Briefly, mixtures (150 μl) containing fXa in appropriate buffer were incubated with or without PZ and with or without membrane at 37°C in the wells of a microtiter plate for 5 mins before adding AT to that. 1 mM of substrate S2765 was added then and initial rate of substrate cleavage was determined by measuring the absorbance at 405 nm using the plate reader (Molecular Devices, CA, USA). Factor Xa activity was determined by comparing the initial rate of substrate cleavage with a standard curve produced with various concentrations of factor Xa in the same buffer conditions.

[6] = 150 nM PZ, 5 mM CaCl2, pH 7.5, 25° C, no pre-incubation lipid, single-site binding model, read-out: apparent Kd for binding to PZ
[7] = 1 mM Ca2+, read-out: binding Kd to PZ in presence of 1 mM Ca2+

T1 sequence (P22891 41-400): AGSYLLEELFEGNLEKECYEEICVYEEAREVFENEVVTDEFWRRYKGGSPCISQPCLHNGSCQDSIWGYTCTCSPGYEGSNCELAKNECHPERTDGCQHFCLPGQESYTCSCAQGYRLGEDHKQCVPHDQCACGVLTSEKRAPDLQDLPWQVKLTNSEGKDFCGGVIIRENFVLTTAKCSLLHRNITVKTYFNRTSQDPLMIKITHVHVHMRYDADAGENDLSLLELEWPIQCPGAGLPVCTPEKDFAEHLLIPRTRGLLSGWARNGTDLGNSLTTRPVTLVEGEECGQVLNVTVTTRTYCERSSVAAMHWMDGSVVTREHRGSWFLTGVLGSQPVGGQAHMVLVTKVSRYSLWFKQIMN
Sequence of human fXa (P00742 41-179 limits assumed): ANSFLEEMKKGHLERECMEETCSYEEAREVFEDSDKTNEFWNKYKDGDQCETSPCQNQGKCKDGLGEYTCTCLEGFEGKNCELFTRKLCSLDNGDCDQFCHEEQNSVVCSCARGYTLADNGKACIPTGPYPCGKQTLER
Sequence of human fXa (P00742 235-488 limits assumed): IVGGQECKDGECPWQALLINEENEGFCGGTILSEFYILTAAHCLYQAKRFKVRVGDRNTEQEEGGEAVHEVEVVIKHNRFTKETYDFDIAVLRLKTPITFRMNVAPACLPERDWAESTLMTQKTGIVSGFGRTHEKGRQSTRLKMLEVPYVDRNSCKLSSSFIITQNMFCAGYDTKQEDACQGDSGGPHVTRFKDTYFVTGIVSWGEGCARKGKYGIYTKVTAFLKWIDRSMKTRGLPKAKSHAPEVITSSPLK

Compound: CCCCCC(=O)OC[C@H](COP(=O)(O)OC[C@@H](N)C(=O)O)OC(=O)CCCCC [C6(D)PS]
Kd [1, 6]: 911 ± 300 µM

Compound: CCCCCC(=O)OC[C@H](COP(=O)([O-])OCC[N+](C)(C)C)OC(=O)CCCCC [C6PC]
Kd [1, 6]: 129 ± 32 µM
effect of pre-incubation of PZ with C6PS on affinity of PZ towards the lipid [1]: did not alter the affinity; also recorded: did not enhance the affinity
lower binding affinity to PZ compared to PS and PE [1]: ~ 3 fold

Compound: CCCCCC(=O)OC[C@H](COP(=O)(O)OCCN)OC(=O)CCCCC [C6PE, 1,2-dicaproyl-sn-glycero-3-phospho-L-ethanolamine]
critical micelle concentration (CMC) [2]: 1.2 mM
Kd ([1]; 150 nM PZ, 5 mM CaCl2, pH 7.5, 25° C, no pre-incubation lipid, single-site binding model, listed as PE, read-out: apparent Kd for binding to PZ): ~48 µM
Kd [1, 6]: 47.6 ± 8.2 µM
Kd [1, 7]: 172 µM
Kd in 1 mM Ca2+ relative to Kd in 5 mM Ca2+ [1]: about 3.5 fold
binding to PZ with excess EDTA [1]: did not observe any binding
Stoichiometry (Average) of lipid binding to PZ [3]: 2.0 (1.93 ± 0.2)
ΔP (difference in phosphate concentration) ([3]; [PZ] 15 μM): 28.9 ± 0.08
ΔP (difference in phosphate concentration) ([3]; [PZ] 20 μM): 31.8 ± 0.2
ΔP (difference in phosphate concentration) ([3]; [PZ] 30 μM): 42.8 ± 0.6
binding to PZ in equilibrium dialysis without Ca2+ [3]: did not detect any binding
Kd [4]: 91 µM

Compound: CCCCCC(=O)OC[C@H](COP(=O)(O)OC[C@H](N)C(=O)O)OC(=O)CCCCC [C6PS, 1,2-dicaproyl-sn-glycero-3-phospho-L-serine]
critical micelle concentration (CMC) [2]: 0.95 mM
Kd [1, 6]: 47.7 ± 10.7 µM
Kd [1, 7]: 165 µM
Kd in 1 mM Ca2+ relative to Kd in 5 mM Ca2+ [1]: about 3.5 fold
binding to PZ with excess EDTA [1]: did not observe any binding
Stoichiometry (Average) of lipid binding to PZ [3]: 2.0 (1.96 ± 0.1)
ΔP (difference in phosphate concentration) ([3]; [PZ] 15 μM): 27.6 ± 0.2
ΔP (difference in phosphate concentration) ([3]; [PZ] 20 μM): 32.3 ± 0.09
ΔP (difference in phosphate concentration) ([3]; [PZ] 30 μM): 45.3 ± 0.1
binding to PZ in equilibrium dialysis without Ca2+ [3]: did not detect any binding
Kd [4]: 86 µM

Further lines, with some results ahead:

Kd [1, 6]: 165 ± 25 µM
lower binding affinity to PZ compared to PS and PE [1]: ~ 3 fold
Compound: CCCCCC(=O)OC[C@H](COP(=O)(O)O)OC(=O)CCCCC [C6PA]
effect of pre-incubation of PZ with C6PS on affinity of PZ towards the lipid [1]: did not alter the affinity; also recorded: did not enhance the affinity

Kd [1, 6]: 131 ± 39 µM
lower binding affinity to PZ compared to PS and PE [1]: ~ 3 fold
Compound: CCCCCC(=O)OC[C@H](COP(=O)(O)OCC(O)CO)OC(=O)CCCCC (stereo partly shown) [C6PG]
effect of pre-incubation of PZ with C6PS on affinity of PZ towards the lipid [1]: did not alter the affinity; also recorded: did not enhance the affinity

effect of inclusion of PZ on AT inhibition of fXa [5]: essentially no effect
Compound: PZ: human Protein Z, 62 kDa vitamin K-dependent cofactor
